# Laboratory results taken from US12691100B2, “NMT inhibitor treatment of a senescence-associated disease or disorder of the liver” (Imperial College Innovations Limited, priority 2020, dated 2026).
# Tests used:
# HCT116 = test: Senescence induction by chemotherapeutic drugs (BrdU, SA-β-Galactosidase, p21CIP1); format: cell-based, human; details: 7 days after treatment, doxorubicin 100 nM, etoposide 2 μM, cisplatin 100 μM; for BrdU incorporation (cell division): FIG. 6A; for SA-β-Galactosidase activity / p21^CIP1 expression: FIGS. 6B-C
# Protocol: (§1) IMR90 cells were used to generate inducible ER:RAS (hereinafter iRAS) cells to model Oncogene induced senescence (OIS), through retroviral infection of pLNC-ER:RAS-neo into IMR90 cells followed by selection with Neomycin. IMR90 cells containing the pLNC-ER:RAS plasmid backbone pLXSN were infected in parallel to assess leakiness in the pLNC-ER:RAS system. Treatment with 100 nM 4OHT (Sigma, in DMSO) was used to induce IMR90 ER:RAS cells to undergo oncogene induced senescence (OIS). Therapy induced senescence (TIS) was induced in IMR90 cells by treatment with 33 μM (50 ug/ml) bleomycin sulphate (Generon, HY-17565) for 24 hours, 20 μM palbociclib (Selleckchem, S1116) for 7 days or 100 nM doxorubicin (Cayman chemical, 15007) for 7 days. Senescence was induced in SK-HEP-1 cells by treatment with 2 μM etoposide (Sigma-Aldrich, E1383) for 7 days (FIGS. 4A-C). HCT-116 senescence was induced by 250 nM treatment with doxorubicin (Cayman chemical, 15007) for 48 hours followed by 5 days culture in media without chemotherapy (FIG. 5), or by treatment with 100 nM doxorubicin, 2 μM etoposide or 100 μM cisplatin for 3 days followed by 4 days culture in media without chemotherapy (FIGS. 6A-7C). Senescence was induced in MCF7 by 200 nM treatment with doxorubicin for 7 days, 2 μM etoposide for 7 days or 10 μM cisplatin for 7 days (FIGS. 8A-9C).
# (§2) BrdU Incorporation—Cell proliferation was assessed through incorporation of nucleotide analogue 5-Bromo-2′-deoxyuridine (BrdU) into cells. 2×10^3 or 8×10^3 IMR90 cells were seeded into 96-well plates in duplicate for DMSO/palbociclib treated and bleomycin/doxorubicin treated cells respectively. 10 μM BrdU was added to cells 18 h before desired time point and wells were then washed in PBS and fixed using 4% paraformaldehyde (w/v, PBS) for 45 minutes to 1 hour before removal and washing 3 times with PBS. BrdU incorporation was assessed via immunofluorescence and high-content analysis (see section ‘Immunofluorescence & High throughput microscopy’).
# (§3) Immunofluorescence staining was carried out by first fixing wells of 96 well plate at desired timepoint for 1 hour using 4% PFA (w/v, in PBS) followed by washing 3 times with PBS. Wells were then permeabilized using 0.2% Triton® X-100 (v/v, PBS) for 10 min or with 0.5% Triton® X-100 (v/v, PBS) for COPI staining. Wells were then washed twice with PBS to halt permeabilization and then non-specific antibody binding blocked by incubation with a blocking solution for 1 hour at RT. Blocking solution contained 1% BSA (w/v, PBS) supplemented with 0.4% Fish Skin Gelatin (v/v, PBS). Primary antibodies were diluted in respective blocking solution (see ‘Antibodies’ for dilutions), blocking solution removed from well and incubated with primary antibody solution for 1 hour at RT. For BrdU staining primary antibody solution is supplemented with 0.5 U/ul DNase (Sigma) and 1 mM MgCl2 and incubation times reduced to 30 minutes. Following incubation, primary antibody was then removed by washing 3 times with PBS. Secondary antibodies conjugated to Alexa-594 or Alexa-488 fluorophores were then diluted in blocking solution added to wells to be incubated in dark for 1 hour. Secondary antibody was then removed by washing 3 times with PBS and nuclei counterstaining with 1 μg/mL DAPI (w/v, PBS) for 10 minutes. Wells were then washed with PBS three times.
# In a second experiment, HCT116 were treated with doxorubicin, etoposide or cisplatin (to induce senescence) or DMSO (as a control). 7 days after treatment, BrdU incorporation (to assess cell division), SA-β-Galactosidase activity and p21^CIP1 expression (as markers of senescence) were analysed. […] Media and compounds were replenished after 72 h of treatment and cultured for 48 h more before fixation and measurement of survival via high-throughput microscopy. DMSO/Doxorubicin/Etoposide (n=4), Cisplatin (n=1).
# MCF7 cancer cells = test: as above; format: cell-based; details: 7 days after treatment, doxorubicin 200 nM, etoposide 2 μM, cisplatin 10 μM; for BrdU incorporation (cell division): FIG. 8A; for SA-β-Galactosidase activity / p21^CIP1 expression: FIGS. 8B-C
# Protocol: as §1, §2, §3
# MCF7 cancer cells were treated with doxorubicin, etoposide or cisplatin (to induce senescence) or DMSO (as a control). 7 days after treatment, analysed BrdU incorporation (to assess cell division), SA-β-Galactosidase activity and p21^CIP1 expression (as markers of senescence) were analysed. […] Media and compounds were replenished after 72 h of treatment and cultured for 48 h more before fixation and measurement of survival via high-throughput microscopy. DMSO/Doxorubicin/Etoposide (n=3), Cisplatin (n=2).
# [1] = literature: Wilson, O'Connor et al. 2010; cited from earlier work
# IMR90 ER:RAS cells = test: Senolytic activity under IRE1 inhibition with KIRA6; format: cell-based, human; details: 600 nM KIRA6 from day 4 post-induction; Compound 1 or 2 from day 7; read at day 12; FIGS. 15A-B
# Protocol: High-throughput microscopy survival assay—To assess senolytic effect of drugs, cells were cultured for 7 days, culture media was changed to DM0.5 media and drugs in DMSO were added (<5% v/v final concentration), drugs were replenished after 3 days if assay length was longer than 72 h. Wells were fixed in 4% PFA for 1 hour at day 10 to 14, washed 3 times with PBS and then stained with 1 μg/mL DAPI (w/v, PBS) for 10 minutes. Wells were then washed 3 times with PBS. Optionally plates could be stored at 4° C. for up to 2 weeks and DAPI stained. Image acquisition of DAPI stained cells was performed on an automated InCell Analyser 2000 (GE Healthcare®) and high-content analysis on the InCell Investigator 2.7.3 software used to quantify number of DAPI positive cells per well. A top-hat method was used to segment cell-nuclei based on DAPI stained area and a minimum nuclear area threshold of 80 μm used to exclude debris. For cancer cell lines, nuclear area threshold was reduced to 40 μm. Survival was measured as cell counts relative to DMSO treated quiescent or senescent cells.
# To investigate whether the activation of UPR caused by NMT inhibition in senescent cells was responsible for the senolytic potential of NMT inhibitors, cells were treated with KIRA6, a selective inhibitor of IRE1, a kinase necessary for the UPR. IMR90 ER:RAS cells undergoing senescence (after induction with 4OHT), were treated with 600 nM KIRA6 (an IRE1 inhibitor) on day 4 post-induction. On day 7 post-induction, cells were treated with Compound 1 or 2 and 600 nM KIRA6. […] Both NMT inhibitor and Kira6 were replenished 3 days after addition of NMT inhibitor (at day 10 post-induction). Data is shown as mean±SD, n represents independent biological experiments.
SMILES,BrdU incorporation (cell division) (HCT116),SA-β-Galactosidase activity (HCT116),p21^CIP1 expression (HCT116),BrdU incorporation (cell division) (MCF7 cancer cells),SA-β-Galactosidase activity (MCF7 cancer cells),p21^CIP1 expression (MCF7 cancer cells),Side effects [1],Effect of KIRA6 on the senolytic activity of NMT inhibitors (IMR90 ER:RAS cells)
COc1cc([C@@H]2c3cc4c(cc3[C@@H](O[C@@H]3O[C@@H]5CO[C@@H](C)O[C@H]5[C@H](O)[C@H]3O)[C@H]3COC(=O)[C@H]23)OCO4)cc(OC)c1O [etoposide],stopped proliferating,upregulated,upregulated,stopped proliferating,upregulated,upregulated,–,–
CC1(C)CCC(c2ccc(Cl)cc2)=C(CN2CCN(c3ccc(C(=O)NS(=O)(=O)c4ccc(N[C@H](CCN5CCOCC5)CSc5ccccc5)c(S(=O)(=O)C(F)(F)F)c4)cc3)CC2)C1 [ABT-263],–,–,–,–,–,–,significant neutropenia and thrombocytopenia,–
COc1cccc2c1C(=O)c1c(O)c3c(c(O)c1C2=O)C[C@@](O)(C(=O)CO)C[C@@H]3O[C@H]1C[C@H](N)[C@H](O)[C@H](C)O1 [doxorubicin],stopped proliferating,upregulated,upregulated,stopped proliferating,upregulated,upregulated,–,–
N.N.[Cl][Pt][Cl] [cisplatin],stopped proliferating,upregulated,upregulated,stopped proliferating,upregulated,upregulated,–,–
"CC(C)(C)c1nc(-c2ccc(NC(=O)Nc3cccc(C(F)(F)F)c3)c3ccccc23)c2c(N)nccn12 [KIRA6, reference compound]",–,–,–,–,–,–,–,prevented the senolytic activity of NMT inhibitors
